Columns and labels:
[1] = Liquid; for viscosity: 101.3 kPa; for mass density: 101.33 kPa
[2] = xn = mol fraction of the nth substance listed; conditions: 101.3 kPa, Liquid

CCCCCO [pentan-1-ol]
[1]
Conditions	mass density [kg/m3]	viscosity [mPa·s]
293.15 K	–	3.979
298.15 K	810.9	3.347
303.15 K	–	2.932
313.15 K	–	2.256

CCOC(=O)OCC [diethyl carbonate] + CCO
[2]
Conditions	viscosity [mPa·s]
293.15 K, x1 = 0.0503	1.098
293.15 K, x1 = 0.0997	1.021
293.15 K, x1 = 0.198	0.906
293.15 K, x1 = 0.3006	0.835
293.15 K, x1 = 0.4031	0.792
293.15 K, x1 = 0.5031	0.77
293.15 K, x1 = 0.6063	0.761
293.15 K, x1 = 0.6898	0.755
293.15 K, x1 = 0.8066	0.759
293.15 K, x1 = 0.895	0.77
293.15 K, x1 = 0.945	0.776
293.15 K, x1 = 1	0.795
298.15 K, x1 = 0.0496	1.05
298.15 K, x1 = 0.0973	0.943
298.15 K, x1 = 0.1963	0.835
298.15 K, x1 = 0.2985	0.771
298.15 K, x1 = 0.398	0.728
298.15 K, x1 = 0.5057	0.714
298.15 K, x1 = 0.6032	0.708
298.15 K, x1 = 0.7035	0.703
298.15 K, x1 = 0.7999	0.702
298.15 K, x1 = 0.8989	0.714
298.15 K, x1 = 0.9283	0.721
298.15 K, x1 = 1	0.749
303.15 K, x1 = 0.0491	0.899
303.15 K, x1 = 0.0984	0.834
303.15 K, x1 = 0.1952	0.754
303.15 K, x1 = 0.2961	0.704
303.15 K, x1 = 0.3946	0.673
303.15 K, x1 = 0.4859	0.661
303.15 K, x1 = 0.5995	0.649
303.15 K, x1 = 0.6959	0.648
303.15 K, x1 = 0.7862	0.649
303.15 K, x1 = 0.8911	0.661
303.15 K, x1 = 0.9254	0.669
303.15 K, x1 = 1	0.699
313.15 K, x1 = 0.0499	0.777
313.15 K, x1 = 0.102	0.74
313.15 K, x1 = 0.2038	0.676
313.15 K, x1 = 0.3116	0.636
313.15 K, x1 = 0.4001	0.613
313.15 K, x1 = 0.4971	0.6
313.15 K, x1 = 0.6023	0.59
313.15 K, x1 = 0.7058	0.591
313.15 K, x1 = 0.8065	0.596
313.15 K, x1 = 0.9022	0.608
313.15 K, x1 = 0.9518	0.616
313.15 K, x1 = 1	0.623

CCCCO [butan-1-ol] + CCOC(=O)OCC
[2], x2 = 0
Conditions	viscosity [mPa·s]
293.15 K	2.941
298.15 K	2.62
303.15 K	2.255
313.15 K	1.754

CCCCCO [pentan-1-ol] + CCOC(=O)OCC
[2], x2 = 0
Conditions	viscosity [mPa·s]
293.15 K	3.979
298.15 K	3.347
303.15 K	2.932
313.15 K	2.256

CCCO [propan-1-ol] + CCOC(=O)OCC
[2], x2 = 0
Conditions	viscosity [mPa·s]
293.15 K	2.198
298.15 K	1.97
303.15 K	1.707
313.15 K	1.361

CCOC(=O)OCC [diethyl carbonate] + CCCCCO
[2]
Conditions	viscosity [mPa·s]
293.15 K, x1 = 0.0496	3.384
293.15 K, x1 = 0.1016	2.868
293.15 K, x1 = 0.2034	2.125
293.15 K, x1 = 0.3124	1.618
293.15 K, x1 = 0.3801	1.412
293.15 K, x1 = 0.5085	1.162
293.15 K, x1 = 0.6047	1.051
293.15 K, x1 = 0.7068	0.955
293.15 K, x1 = 0.8058	0.88
293.15 K, x1 = 0.9058	0.825
293.15 K, x1 = 0.9521	0.804
293.15 K, x1 = 1	0.795
298.15 K, x1 = 0.0459	2.91
298.15 K, x1 = 0.0984	2.492
298.15 K, x1 = 0.2067	1.857
298.15 K, x1 = 0.3012	1.497
298.15 K, x1 = 0.4002	1.242
298.15 K, x1 = 0.5091	1.067
298.15 K, x1 = 0.5884	0.972
298.15 K, x1 = 0.6988	0.871
298.15 K, x1 = 0.7986	0.802
298.15 K, x1 = 0.9133	0.751
298.15 K, x1 = 0.9663	0.745
298.15 K, x1 = 1	0.749
303.15 K, x1 = 0.0541	2.471
303.15 K, x1 = 0.0951	2.186
303.15 K, x1 = 0.1968	1.664
303.15 K, x1 = 0.292	1.356
303.15 K, x1 = 0.3986	1.131
303.15 K, x1 = 0.4966	0.992
303.15 K, x1 = 0.5963	0.88
303.15 K, x1 = 0.6847	0.803
303.15 K, x1 = 0.7988	0.733
303.15 K, x1 = 0.8885	0.706
303.15 K, x1 = 0.9493	0.7
303.15 K, x1 = 1	0.699
313.15 K, x1 = 0.0505	1.97
313.15 K, x1 = 0.1009	1.729
313.15 K, x1 = 0.2038	1.359
313.15 K, x1 = 0.3044	1.12
313.15 K, x1 = 0.4054	0.96
313.15 K, x1 = 0.5077	0.845
313.15 K, x1 = 0.5969	0.771
313.15 K, x1 = 0.71	0.697
313.15 K, x1 = 0.81	0.65
313.15 K, x1 = 0.9036	0.623
313.15 K, x1 = 0.9537	0.621
313.15 K, x1 = 1	0.623

CCCCO [butan-1-ol]
[1]
Conditions	mass density [kg/m3]	viscosity [mPa·s]
293.15 K	–	2.941
298.15 K	805.9	2.62
303.15 K	–	2.255
313.15 K	–	1.754

CCOC(=O)OCC [diethyl carbonate] + CCCO
[2]
Conditions	viscosity [mPa·s]
293.15 K, x1 = 0.0504	1.9
293.15 K, x1 = 0.1007	1.662
293.15 K, x1 = 0.2008	1.325
293.15 K, x1 = 0.3019	1.115
293.15 K, x1 = 0.4004	0.998
293.15 K, x1 = 0.5039	0.921
293.15 K, x1 = 0.6031	0.877
293.15 K, x1 = 0.7007	0.84
293.15 K, x1 = 0.7999	0.808
293.15 K, x1 = 0.9132	0.786
293.15 K, x1 = 0.9531	0.785
293.15 K, x1 = 1	0.795
298.15 K, x1 = 0.0515	1.689
298.15 K, x1 = 0.0993	1.482
298.15 K, x1 = 0.2012	1.178
298.15 K, x1 = 0.3007	1.005
298.15 K, x1 = 0.4026	0.904
298.15 K, x1 = 0.5022	0.845
298.15 K, x1 = 0.6029	0.801
298.15 K, x1 = 0.7041	0.762
298.15 K, x1 = 0.8087	0.73
298.15 K, x1 = 0.9065	0.721
298.15 K, x1 = 0.9523	0.729
298.15 K, x1 = 1	0.749
303.15 K, x1 = 0.0464	1.494
303.15 K, x1 = 0.0963	1.315
303.15 K, x1 = 0.1968	1.062
303.15 K, x1 = 0.2981	0.907
303.15 K, x1 = 0.3987	0.818
303.15 K, x1 = 0.4958	0.771
303.15 K, x1 = 0.5991	0.732
303.15 K, x1 = 0.6967	0.703
303.15 K, x1 = 0.8063	0.678
303.15 K, x1 = 0.908	0.674
303.15 K, x1 = 0.9448	0.682
303.15 K, x1 = 1	0.699
313.15 K, x1 = 0.05	1.214
313.15 K, x1 = 0.1018	1.087
313.15 K, x1 = 0.2001	0.911
313.15 K, x1 = 0.3017	0.795
313.15 K, x1 = 0.3958	0.727
313.15 K, x1 = 0.504	0.674
313.15 K, x1 = 0.6009	0.642
313.15 K, x1 = 0.7032	0.624
313.15 K, x1 = 0.7998	0.61
313.15 K, x1 = 0.8997	0.608
313.15 K, x1 = 0.9468	0.612
313.15 K, x1 = 1	0.623

CCCO [propan-1-ol]
[1]
Conditions	mass density [kg/m3]	viscosity [mPa·s]
293.15 K	–	2.198
298.15 K	799.5	1.97
303.15 K	–	1.707
313.15 K	–	1.361

CO [methanol]
[1]
Conditions	mass density [kg/m3]	viscosity [mPa·s]
293.15 K	–	0.591
298.15 K	786.6	0.553
303.15 K	–	0.514
313.15 K	–	0.45

CO [methanol] + CCOC(=O)OCC
[2], x2 = 0
Conditions	viscosity [mPa·s]
293.15 K	0.591
298.15 K	0.553
303.15 K	0.514
313.15 K	0.45

CC(C)O [propan-2-ol] + CCOC(=O)OCC
[2], x2 = 0
Conditions	viscosity [mPa·s]
293.15 K	2.386
298.15 K	2.098
303.15 K	1.763
313.15 K	1.325

Reference: the NIST ThermoML archive (doi:10.1021/je0341413)
